Data published in patent US20250017885A1, “TREATMENT OF INCLUSION BODY MYOSITIS WITH PHENYLBUTYRATE AND MONITORING OF TREATMENT” (University of Kansas, priority 2023, published 2025).
Entries after “also recorded” stand apart in the source; their conditions may differ.

What was measured:
Type in all cases: in vivo, human
[1] = system: patients with inclusion body myositis; test: Secondary outcome measures: strength and functional measures (manual muscle testing, TUG, IBMFRS, grip strength)
From the text: Primary outcome measures included adverse event reporting. Secondary outcome measures included multiple strength and functional measures: manual muscle testing, timed up and go test (TUG), IBM functional rating scale (IBMFRS), and grip strength. These clinical outcome measures were commonly used in evaluating progression of IBM and in clinical trials of this disease.^18,19,20,21 In addition, safety laboratory tests and electrocardiogram would be monitored regularly. As mentioned above, the biomarkers would be repeated at the end of the treatment period. For the secondary outcomes, the measurements at baseline, month-3, and month-7 would be reported using mean and standard deviation (or median and interquartile range for skewed measurements) along with a corresponding 95% confidence interval. These measurements would be visually compared using box plots to detect the presence of a trend over time by drawing a trend line on the means (or median). Due to the small sample size, this comparison would be done visually, and no formal statistical test would be done routinely but it would be considered to further study a trend.

[2] = system: Annexin, MitoSox, TMRE, TDP-43; test: Exploratory biomarkers: Annexin, MitoSox, TMRE, TDP-43; conditions: FIGS. 7A-7B, 8A-8B, 9A-9B, 10A-10B
From the text: (§1) Safety and tolerability of PBA in IBM patients were studied, with a run-in period of 3 months without medication. Biomarkers were studied. […] We have previously assayed TDP-43 and its derivative, phosphorylated TDP-43 (pTDP-43) in peripheral blood platelets in our laboratory (Dr. Agbas). TDP43 positive cytoplasmic aggregates have been described in ALS motor neurons and IBM skeletal muscle tissue with significant up-regulation of TARDBP (the gene expresses TDP-43 protein) and SQTM1 (Sequestosome-1) gene expression.14 Therefore, we planned to measure blood-derived platelet total TDP-43 and pTDP-43 as surrogate biomarker for skeletal muscle TDP-43 profile of IBM patients.

[3] = system: mitochondrial membrane potential; test: MitoTracker biomarker (overall mitochondrial mass / mitochondrial membrane potential) in IBM patients treated with PBA
From the text: The mitochondrial tracker used to track treatment of IBM with PBA can include MitoTracker dyes that are cationic fluorophores that accumulate electrophoretically into mitochondria in response to the highly negative mitochondrial membrane potential. […] Thus, mitochondria retain MitoTracker dyes like MitoTracker Orange CMTMRos after loss of their membrane potential. Sec, Kholmukhamedov A, Schwartz J M, Lemasters J J. Isolated mitochondria infusion mitigates ischemia-reperfusion injury of the liver in rats: mitotracker probes and mitochondrial membrane potential. Shock. 2013 June; 39(6):543. doi:10.1097/SHK.0b013e318292300d. PMID: 23680774; PMCID: PMC3759289.
as §1
The trend observed in the boxplots of MitoTracker data warranted further exploration with a post hoc analysis. A generalized linear mixed model was used to estimate mean values of MitoTracker at each timepoint. 10 of 11 subjects had measurements at all 3 timepoints. Time was used as a categorical value and correlation among an individual's repeated measurements was accounted for with a random effect for subject. The fixed effect, month, was not statistically significant (p=0.0724). […] The results from the model are exploratory.
For the secondary outcomes, the measurements at baseline, month-3, and month-7 would be reported using mean and standard deviation (or median and interquartile range for skewed measurements) along with a corresponding 95% confidence interval. These measurements would be visually compared using box plots to detect the presence of a trend over time by drawing a trend line on the means (or median). Due to the small sample size, this comparison would be done visually, and no formal statistical test would be done routinely but it would be considered to further study a trend.

With phenylbutyrate [PBA] the “IBMFRS change during the study” value ([1]; 3 months run-in, 3 months treatment) was “did not seem to change during the study”, the IBMFRS median ([1]; at the end of the treatment period, median 23 at baseline, 24 at the beginning of the treatment period) was 23 and the “Strength evaluation of 24 muscles with accumulative total score, change” value ([1]; in vivo) was “No meaningful change”. The “TUG (seconds) over the duration of the treatment, change” value ([1]; in vivo) was “No meaningful change”, the “Change in all clinical and most biological outcome measures” value ([1]; short duration, small sample size) was “no meaningful changes in all clinical and most biological outcome measures” and the “Change in exploratory biomarkers (Annexin, MitoSox, TMRE, TDP-43)” value [2] was “no meaningful change in most exploratory biomarkers”. For the same substance, the MitoTracker median ([3]; at the end of the treatment period, 19299 at the baseline, 28823 at the beginning of the treatment period) was 8010, the “MitoTracker estimated coefficient (95% CI), Month 6” value ([3]; generalized linear mixed model, Month 3 reference, p 0.0385) was −21,344 (−41,402, −1,287) and the “MitoTracker estimated coefficient (95% CI), On treatment - Off treatment” value ([3]; generalized linear mixed model, after treatment vs months 0 and 3 combined) was 20,780 (3,091, 38,469). For the same substance, the “MitoTracker (mitochondrial mass) change with treatment” value ([3]; treatment period vs run-in period) was “statistically significant change in the mitochondria; also recorded: changes with treatment with PBA; also recorded: statistically significant change in MitoTracker (mitochondrial mass); also recorded: dropped at the end of the treatment period; also recorded: statistically significantly different from pre-treatment; also recorded: significant drop with treatment”.
